According to patent US6331520A, “Pharmaceutical compositions of peptides having low solubility in physiological medium” (Applied Research Systems ARS Holding NV, priority 1997, dated 2001):
≈ marks a conversion by molar mass, not a printed value. Non-standard residues stand in square brackets, D forms with d. Residues, ends and D or L forms follow the SMILES beside them. *: point of attachment. dPhe(4-Cl) = N[C@H](Cc1ccc(Cl)cc1)C(=O)O; d2Nal = N[C@H](Cc1ccc2ccccc2c1)C(=O)O; Lys(iPr) = CC(C)NCCCC[C@H](N)C(=O)O; d3Pal = N[C@H](Cc1cccnc1)C(=O)O; Nicotinoyl = O=C(c1cccnc1)*

Columns and labels:
Assay type in all cases: physicochemical
[1] = Solubilisation studies for antide: effect of pH (WFI, saline, acids)
Description: Solubilisation studies were carried out to study the effect of:
pH (solutions were acidified with either acetic acid or hydrochloric acid)
(§1) Saline used in these studies corresponds to 0.9% sodium chloride solution.
(§2) Following the visual analysis, a number of solutions were selected for further quantitative determination of the solubility by filtration (0.45 μm filters) and appropriate dilution using the RP-HPLC method described above.
Tables 3 to 7 summarise the observations collected in order to obtain information on the solubility behaviour of antide in water for injectables (WFI), WFI acidified by HCl or acetic acid, saline and saline acidified by acetic acid. In agreement with previous studies, the solubility of antide increased as the pH decreased.

[2] = Solubilisation studies for antide: effect of hydrotropic agents in saline; settings: for Solubility: antide 5 mg/ml added
Excerpt: hydrotropic agents (nicotinamide, sodium saccharin, sodium salicylate, sodium benzoate, histidine hydrochloride, thiamine hydrochloride, phenylalanine).
as §1, §2
The effect of different hydrotropic agents (1.5% & 15% w/w) in saline solutions was also evaluated and is described in Tables 8 and 9.

[3] = Stability of nicotinamide/antide formulations; design: Stability (antide found): unit not given here
Description: RP-HPLC gradient elution, C-18 (e.g. Vydac 218 TP54, 250×4.6 mm) column. UV detection at 215 nm, injection volume 15 μl, mobile phase A: pH 4.5 phosphate buffer (0.1 M), mobile phase B: acetonitrile, flow rate=1.0 ml/min, runtime=23 min. External standard solution concentrations of 100 μg/ml were injected during analysis. The gradient was: 77% A, 23% B to 52% A, 48% B […].
Four formulations of antide and nicotinamide at different concentration ratios and adjusted to pH 5 were prepared and tested over 3 months at +40° C., +25° C. and +4° C.

[4] = Solubilisation studies for hGRF; settings: for solubility thermodynamic at 1 week: 0.9% NaCl
Description: Solubilisation studies were carried out to study the effect of saline and pH 7 phosphate buffer on the solubility of hGRF.
Qunatitation of the amount of hGRF dissolved was performed by filtration of the equilibrated solution through a 0.45 μm filter prior to dilution and analysis by HPLC.

For `CC(=O)N[C@H](Cc1ccc2ccccc2c1)C(=O)N[C@H](Cc1ccc(Cl)cc1)C(=O)N[C@H](Cc1cccnc1)C(=O)N[C@@H](CO)C(=O)N[C@@H](CCCCNC(=O)c1cccnc1)C(=O)N[C@H](CCCCNC(=O)c1cccnc1)C(=O)N[C@@H](CC(C)C)C(=O)N[C@@H](CCCCNC(C)C)C(=O)N1CCC[C@H]1C(=O)N[C@H](C)C(N)=O` [antide] (Ac-[d2Nal][dPhe(4-Cl)][d3Pal]SK(Nicotinoyl)[dK](Nicotinoyl)L[Lys(iPr)]P[dA]-NH2), the “Solubility” value ([1]; 10 mg/ml in saline, pH 3.0 or 4.6, 4% acetic acid) was “not soluble”, the Solubility ([1]; WFI, 10 mg/ml nominal amount added, pH 4.40) was 8130 µg/mL (≈ 5110 µM) and the Solubility ([1]; phosphate buffered saline, aqueous buffer, read-out: solubility) was 16 µg/mL (≈ 10.1 µM). The Solubility ([1]; saline solution, natural pH 5.04) was 25 µg/mL (≈ 15.7 µM), the solubility thermodynamic ([1]; water, without further acidification, read-out: solubility limit) was 8100 µg/mL (≈ 5090 µM) and the “solubilisation” value ([2]; 1.5% w/w hydrotropic agents in saline, antide 10 mg/ml) was “not effective”. The antide solubilised ([2]; 5% nicotinamide in saline) was “about 0.5 mg/ml”, the antide solubilised ([2]; 20% nicotinamide in saline) was 8.5 mg/mL and the Solubility ([2]; saline + 15% nicotinamide, pH 5.79) was 3320 µg/mL. It also gave a Solubility ([2]; saline + 15% sodium benzoate, pH 6.69) of 72 µg/mL, a Solubility ([2]; saline + 15% sodium salicylate, pH 5.81) of 210 µg/mL and a Solubility ([2]; saline + 15% thiamine hydrochloride, pH 3.30) of 3010 µg/mL. The Solubility ([2]; saline + histidine hydrochloride (5%), pH 4.17) was 76 µg/mL, the Solubility ([2]; saline + phenylalanine (1.7%), pH 4.59) was 66 µg/mL and the “Stability (antide found)” value ([3]; antide 1 mg/ml, nicotinamide 5%, +4° C., 4W) was 0.9. The “Stability (antide found)” value ([3]; antide 1 mg/ml, nicotinamide 5%, +4° C., 12W) was 1.0, the “Stability (antide found)” value ([3]; antide 1 mg/ml, nicotinamide 5%, +25° C., 1W) was 0.9 and the “Stability (antide found)” value ([3]; antide 1 mg/ml, nicotinamide 5%, +25° C., 4W) was 0.9. For the same compound, the “Stability (antide found)” value ([3]; antide 1 mg/ml, nicotinamide 5%, +25° C., 12W) was 1.0, the “Stability (antide found)” value ([3]; antide 1 mg/ml, nicotinamide 5%, +40° C., 1W) was 1.0 and the “Stability (antide found)” value ([3]; antide 1 mg/ml, nicotinamide 5%, +40° C., 4W) was 0.9. The “Stability (antide found)” value ([3]; antide 1 mg/ml, nicotinamide 5%, +40° C., 12W) was 1.0, the “Stability (antide found)” value ([3]; antide 1 mg/ml, nicotinamide 5%, T = 0) was 1.0 and the “Stability (antide found)” value ([3]; antide 1 mg/ml, nicotinamide 25%, +4° C., 4W) was 1.0. For the same compound, the “Stability (antide found)” value ([3]; antide 1 mg/ml, nicotinamide 25%, +4° C., 12W) was 1.1, the “Stability (antide found)” value ([3]; antide 1 mg/ml, nicotinamide 25%, +25° C., 1W) was 1.0 and the “Stability (antide found)” value ([3]; antide 1 mg/ml, nicotinamide 25%, +25° C., 4W) was 1.0. For the same compound, the “Stability (antide found)” value ([3]; antide 1 mg/ml, nicotinamide 25%, +25° C., 12W) was 1.1, the “Stability (antide found)” value ([3]; antide 1 mg/ml, nicotinamide 25%, +40° C., 1W) was 1.0 and the “Stability (antide found)” value ([3]; antide 1 mg/ml, nicotinamide 25%, +40° C., 4W) was 1.0. The “Stability (antide found)” value ([3]; antide 1 mg/ml, nicotinamide 25%, +40° C., 12W) was 1.1, the “Stability (antide found)” value ([3]; antide 1 mg/ml, nicotinamide 25%, T = 0) was 1.0 and the “Stability (antide found)” value ([3]; antide 10 mg/ml, nicotinamide 5%, +4° C., 1W) was 10.3. For the same compound, the “Stability (antide found)” value ([3]; antide 10 mg/ml, nicotinamide 5%, +4° C., 4W) was 10.0, the “Stability (antide found)” value ([3]; antide 10 mg/ml, nicotinamide 5%, +4° C., 12W) was 10.5 and the “Stability (antide found)” value ([3]; antide 10 mg/ml, nicotinamide 5%, +25° C., 1W) was “gel”. For the same compound, the “Stability (antide found)” value ([3]; antide 10 mg/ml, nicotinamide 5%, +25° C., 4W) was “gel”, the “Stability (antide found)” value ([3]; antide 10 mg/ml, nicotinamide 5%, +25° C., 12W) was “gel” and the “Stability (antide found)” value ([3]; antide 10 mg/ml, nicotinamide 5%, +40° C., 1W) was “gel”. The “Stability (antide found)” value ([3]; antide 10 mg/ml, nicotinamide 5%, +40° C., 4W) was “gel”, the “Stability (antide found)” value ([3]; antide 10 mg/ml, nicotinamide 5%, +40° C., 12W) was “gel” and the “Stability (antide found)” value ([3]; antide 10 mg/ml, nicotinamide 5%, T = 0) was 9.7. The “Stability (antide found)” value ([3]; antide 10 mg/ml, nicotinamide 25%, +4° C., 4W) was 10.1, the “Stability (antide found)” value ([3]; antide 10 mg/ml, nicotinamide 25%, +25° C., 1W) was 9.8 and the “Stability (antide found)” value ([3]; antide 10 mg/ml, nicotinamide 25%, +25° C., 4W) was 9.5. For the same compound, the “Stability (antide found)” value ([3]; antide 10 mg/ml, nicotinamide 25%, +25° C., 12W) was 11.1, the “Stability (antide found)” value ([3]; antide 10 mg/ml, nicotinamide 25%, +40° C., 1W) was 10.7 and the “Stability (antide found)” value ([3]; antide 10 mg/ml, nicotinamide 25%, +40° C., 4W) was 9.4. For the same compound, the “Stability (antide found)” value ([3]; antide 10 mg/ml, nicotinamide 25%, +40° C., 12W) was 10.2, the “Stability (antide found)” value ([3]; antide 10 mg/ml, nicotinamide 25%, T = 0) was 9.8 and the chemical degradation ([3]; antide/nicotinamide formulations, after 3 months) was “No chemical degradation”.
Work on `CC[C@H](C)[C@H](NC(=O)[C@H](C)NC(=O)[C@H](CC(=O)O)NC(=O)[C@H](C)NC(=O)[C@@H](N)Cc1ccc(O)cc1)C(=O)N[C@@H](Cc1ccccc1)C(=O)N[C@H](C(=O)N[C@@H](CC(N)=O)C(=O)N[C@@H](CO)C(=O)N[C@@H](Cc1ccc(O)cc1)C(=O)N[C@@H](CCCNC(=N)N)C(=O)N[C@@H](CCCCN)C(=O)N[C@H](C(=O)N[C@@H](CC(C)C)C(=O)NCC(=O)N[C@@H](CCC(N)=O)C(=O)N[C@@H](CC(C)C)C(=O)N[C@@H](CO)C(=O)N[C@@H](C)C(=O)N[C@@H](CCCNC(=N)N)C(=O)N[C@@H](CCCCN)C(=O)N[C@@H](CC(C)C)C(=O)N[C@@H](CC(C)C)C(=O)N[C@@H](CCC(N)=O)C(=O)N[C@@H](CC(=O)O)C(=O)N[C@H](C(=O)N[C@@H](CCSC)C(=O)N[C@@H](CO)C(=O)N[C@@H](CCCNC(=N)N)C(N)=O)[C@@H](C)CC)C(C)C)[C@@H](C)O` [hGRF, hGRF(1-29)-NH2] yielded a solubility thermodynamic at 1 week ([4]; 25° C., one week) of 42 µg/mL (≈ 12.5 µM), a solubility thermodynamic at 1 week ([4]; 40° C. for one week) of 97 µg/mL (≈ 28.9 µM) and a solubility at 1 week ([4]; 25° C., WFI, one week) greater than 1000 µg/mL. The Solubility ([4]; 40° C. for one week, 0.9% NaCl + 5% nicotinamide) was 875 µg/mL and the solubility thermodynamic at 5 days ([4]; PBS, pH 7, aqueous buffer, 25° C., 5 days) was 32 µg/mL (≈ 9.53 µM).
